Test results published in patent US9914732B2, “Diazabicyclo[4.3.1]decane derivatives for treatment of psychiatric disorders” (Max-Planck-Gesellschaft zur Forderung der Wissenschaften …, priority 2014, dated 2018).

Key:
FKBP51 = target: T1, FKBP51 (Homo sapiens, UniProt Q13451); assay: Fluorescence polarization (FP) assay, binding to the FK506-binding domain of FKBP51; details: FK506-binding domain of FKBP51 (FKBP51FK1), competition with fluorescent ligand 2b
T1 sequence (Q13451 42-130 limits assumed): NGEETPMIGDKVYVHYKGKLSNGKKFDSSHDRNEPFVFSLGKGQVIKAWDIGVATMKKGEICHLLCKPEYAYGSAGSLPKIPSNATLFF
How it was run: (§1)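 Competitive FP with fluorescent ligand 2b at 20 nM (2× concentration) and FK1 domain at 280 nM (FKBP51) or 400 nM (FKBP52) in 20 mM HEPES pH 8, 0.01% Triton-X100. Anisotropy read after 30 min at room temperature (ex 485, em 535 nm), in duplicate; IC50 by four-parameter fit, Ki via Wang competitive equation.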

FKBP52 = target: T2, FKBP52 (Homo sapiens, UniProt Q02790); assay: Fluorescence polarization (FP) assay, binding to the FK506-binding domain of FKBP52; details: FK506-binding domain of FKBP52 (FKBP52FK1), competition with fluorescent ligand 2b
T2 sequence (Q02790 50-138 limits assumed): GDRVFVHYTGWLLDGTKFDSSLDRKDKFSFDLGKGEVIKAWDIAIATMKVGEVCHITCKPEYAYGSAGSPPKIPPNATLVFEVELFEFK
How it was run: as §1

Compound	Ki (FKBP51) [nM]	Ki (FKBP52) [nM]
COCCCCN1C[C@@H](CO)[C@H]2CCC[C@@H](C1=O)N2S(=O)(=O)c1cc(Cl)cc(Cl)c1 [Compound J7, (1S,5R,6R)-10-((3,5-dichlorophenyl)sulfonyl)-5-(hydroxymethyl)-3-(4-methoxybutyl)-3,10-diazabicyclo[4.3.1]decan-2-one]	500 to 1000	500 to 1000
O=C1[C@@H]2CCC[C@H]([C@H](CO)CN1Cc1ccccn1)N2S(=O)(=O)c1cc(Cl)cc(Cl)c1 [Compound J8, (1S,5R,6R)-10-((3,5-dichlorophenyl)sulfonyl)-5-(hydroxymethyl)-3-(pyridin-2-ylmethyl)-3,10-diazabicyclo[4.3.1]decan-2-one]	≤ 100	≤ 100
C=C[C@@H]1CN(CC(=O)OCC)C(=O)[C@@H]2CCC[C@H]1N2S(=O)(=O)c1cc(Cl)cc(Cl)c1 [Compound J9, ethyl 2-((1S,5R,6R)-10-((3,5-dichlorophenyl)sulfonyl)-2-oxo-5-vinyl-3,10-diazabicyclo[4.3.1]decan-3-yl)acetate]	100 to 500	100 to 500
C=C[C@@H]1CN(Cc2ccncn2)C(=O)[C@@H]2CCC[C@H]1N2S(=O)(=O)c1cc(Cl)cc(Cl)c1 [Compound J15, (1S,5R,6R)-10-((3,5-dichlorophenyl)sulfonyl)-3-(pyrimidin-4-ylmethyl)-5-vinyl-3,10-diazabicyclo[4.3.1]decan-2-one]	100 to 500	100 to 500
C=C[C@@H]1CN(Cc2ccco2)C(=O)[C@@H]2CCC[C@H]1N2S(=O)(=O)c1cc(Cl)cc(Cl)c1 [Compound J17, (1S,5R,6R)-10-((3,5-dichlorophenyl)sulfonyl)-3-(furan-2-ylmethyl)-5-vinyl-3,10-diazabicyclo[4.3.1]decan-2-one]	1000 to 5000	1000 to 5000
C=C[C@@H]1CN(Cc2ccccn2)C(=O)[C@@H]2CCC[C@H]1N2S(=O)(=O)c1ccc2[nH]c(=O)sc2c1 [Compound K4, 6-(((1S,5R,6R)-2-oxo-3-(pyridin-2-ylmethyl)-5-vinyl-3,10-diazabicyclo[4.3.1]decan-10-yl)sulfonyl)benzo[d]thiazol-2(3H)-one]	≤ 100	≤ 100
C=C[C@@H]1CN(Cc2ccccn2)C(=O)[C@@H]2CCC[C@H]1N2S(=O)(=O)c1cccc(C#N)c1 [Compound K7, 3-(((1S,5R,6R)-2-oxo-3-(pyridin-2-ylmethyl)-5-vinyl-3,10-diazabicyclo[4.3.1]decan-10-yl)sulfonyl)benzonitrile]	100 to 500	100 to 500
C=C[C@@H]1CN(Cc2ccccn2)C(=O)[C@@H]2CCC[C@H]1N2S(=O)(=O)c1cc(Cl)c(O)c(Cl)c1 [Compound K8, (1S,5R,6R)-10-((3,5-dichloro-4-hydroxyphenyl)sulfonyl)-3-(pyridin-2-ylmethyl)-5-vinyl-3,10-diazabicyclo[4.3.1]decan-2-one]	100 to 500	100 to 500
C=C[C@@H]1CN(Cc2ccccn2)C(=O)[C@@H]2CCC[C@H]1N2S(=O)(=O)c1cc(Br)cc(C(N)=O)c1 [Compound K18, 3-bromo-5-(((1S,5R,6R)-2-oxo-3-(pyridin-2-ylmethyl)-5-vinyl-3,10-diazabicyclo[4.3.1]decan-10-yl)sulfonyl)benzamide]	100 to 500	100 to 500
C=C[C@@H]1CN(Cc2ccccn2)C(=O)[C@@H]2CCC[C@H]1N2S(=O)(=O)c1cc(Cl)cc(C(N)=O)c1 [Compound K19, 3-chloro-5-(((1S,5R,6R)-2-oxo-3-(pyridin-2-ylmethyl)-5-vinyl-3,10-diazabicyclo[4.3.1]decan-10-yl)sulfonyl)benzamide]	100 to 500	100 to 500
C=C[C@@H]1CN(Cc2ccccn2)C(=O)[C@@H]2CCC[C@H]1N2S(=O)(=O)c1cc(Cl)c(NC(C)=O)c(Cl)c1 [Compound K22, N-(2,6-dichloro-4-(((1S,5R,6R)-2-oxo-3-(pyridin-2-ylmethyl)-5-vinyl-3,10-diazabicyclo[4.3.1]decan-10-yl)sulfonyl)phenyl)acetamide]	≤ 100	≤ 100
C=C[C@@H]1CN(Cc2ccccn2)C(=O)[C@@H]2CCC[C@H]1N2S(=O)(=O)c1cccc(C(=O)OC)c1 [Compound K23, methyl 3-(((1S,5R,6R)-2-oxo-3-(pyridin-2-ylmethyl)-5-vinyl-3,10-diazabicyclo[4.3.1]decan-10-yl)sulfonyl)benzoate]	500 to 1000	500 to 1000
C=C[C@@H]1CN(Cc2ccccn2)C(=O)[C@@H]2CCC[C@H]1N2S(=O)(=O)c1cc(Cl)cc(C(=O)OC)c1 [Compound K25, methyl 3-chloro-5-(((1S,5R,6R)-2-oxo-3-(pyridin-2-ylmethyl)-5-vinyl-3,10-diazabicyclo[4.3.1]decan-10-yl)sulfonyl)benzoate]	≤ 100	≤ 100
C=C[C@@H]1CN(Cc2ccccn2)C(=O)[C@@H]2CCC[C@H]1N2S(=O)(=O)c1ccc(-c2ccccc2)nc1 [Compound K27, (1S,5R,6R)-10-((6-phenylpyridin-3-yl)sulfonyl)-3-(pyridin-2-ylmethyl)-5-vinyl-3,10-diazabicyclo[4.3.1]decan-2-one]	100 to 500	100 to 500
CN(C)C[C@H]1CN(Cc2ccccn2)C(=O)[C@@H]2CCC[C@H]1N2S(=O)(=O)c1cc(Cl)cc(Cl)c1 [Compound M2, (1S,5S,6R)-10-((3,5-dichlorophenyl)sulfonyl)-5-((dimethylamino)methyl)-3-(pyridin-2-ylmethyl)-3,10-diazabicyclo[4.3.1]decan-2-one]	≤ 100	≤ 100
O=C1[C@@H]2CCC[C@H]([C@@H](C(F)F)CN1Cc1ccccn1)N2S(=O)(=O)c1cc(Cl)cc(Cl)c1 [Compound M3, (1S,5S,6R)-10-((3,5-dichlorophenyl)sulfonyl)-5-(difluoromethyl)-3-(pyridin-2-ylmethyl)-3,10-diazabicyclo[4.3.1]decan-2-one]	≤ 100	≤ 100
O=C1[C@@H]2CCC[C@H]([C@@H](CF)CN1Cc1ccccn1)N2S(=O)(=O)c1cc(Cl)cc(Cl)c1 [Compound M4, (1S,5S,6R)-10-((3,5-dichlorophenyl)sulfonyl)-5-(fluoromethyl)-3-(pyridin-2-ylmethyl)-3,10-diazabicyclo[4.3.1]decan-2-one]	≤ 100	≤ 100
CCOC[C@H]1CN(Cc2ccccn2)C(=O)[C@@H]2CCC[C@H]1N2S(=O)(=O)c1cc(Cl)cc(Cl)c1 [Compound M6, (1S,5S,6R)-10-((3,5-dichlorophenyl)sulfonyl)-5-(ethoxymethyl)-3-(pyridin-2-ylmethyl)-3,10-diazabicyclo[4.3.1]decan-2-one]	≤ 100	≤ 100
C#CCN1C[C@H](COC)[C@H]2CCC[C@@H](C1=O)N2S(=O)(=O)c1cc(Br)cc(Br)c1 [Compound N3, (1S,5S,6R)-10-((3,5-dibromophenyl)sulfonyl)-5-(methoxymethyl)-3-(prop-2-yn-1-yl)-3,10-diazabicyclo[4.3.1]decan-2-one]	100 to 500	100 to 500
C#CCN1C[C@H](COC)[C@H]2CCC[C@@H](C1=O)N2S(=O)(=O)c1cccc(C(N)=O)c1 [Compound N4, 3-(((1S,5S,6R)-5-(methoxymethyl)-2-oxo-3-(prop-2-yn-1-yl)-3,10-diazabicyclo[4.3.1]decan-10-yl)sulfonyl)benzamide]	100 to 500	100 to 500
C#CCN1C[C@H](COC)[C@H]2CCC[C@@H](C1=O)N2S(=O)(=O)c1cc(Br)cc(C(N)=O)c1 [Compound N5, 3-bromo-5-(((1S,5S,6R)-5-(methoxymethyl)-2-oxo-3-(prop-2-yn-1-yl)-3,10-diazabicyclo[4.3.1]decan-10-yl)sulfonyl)benzamide]	100 to 500	100 to 500
C#CCN1C[C@H](COC)[C@H]2CCC[C@@H](C1=O)N2S(=O)(=O)c1cc(Cl)cc(C(N)=O)c1 [Compound N6, 3-chloro-5-(((1S,5S,6R)-5-(methoxymethyl)-2-oxo-3-(prop-2-yn-1-yl)-3,10-diazabicyclo[4.3.1]decan-10-yl)sulfonyl)benzamide]	100 to 500	100 to 500
C#CCN1C[C@H](COC)[C@H]2CCC[C@@H](C1=O)N2S(=O)(=O)c1ccc(NC(C)=O)c(Br)c1 [Compound N7, N-(2-bromo-4-(((1S,5S,6R)-5-(methoxymethyl)-2-oxo-3-(prop-2-yn-1-yl)-3,10-diazabicyclo[4.3.1]decan-10-yl)sulfonyl)phenyl)acetamide]	100 to 500	100 to 500
C#CCN1C[C@H](COC)[C@H]2CCC[C@@H](C1=O)N2S(=O)(=O)c1ccc(NC(C)=O)c(Cl)c1 [Compound N8, N-(2-chloro-4-(((1S,5S,6R)-5-(methoxymethyl)-2-oxo-3-(prop-2-yn-1-yl)-3,10-diazabicyclo[4.3.1]decan-10-yl)sulfonyl)phenyl)acetamide]	100 to 500	100 to 500
C#CCN1C[C@H](COC)[C@H]2CCC[C@@H](C1=O)N2S(=O)(=O)c1cc(Cl)c(NC(C)=O)c(Cl)c1 [Compound N9, N-(2,6-dichloro-4-(((1S,5S,6R)-5-(methoxymethyl)-2-oxo-3-(prop-2-yn-1-yl)-3,10-diazabicyclo[4.3.1]decan-10-yl)sulfonyl)phenyl)acetamide]	100 to 500	100 to 500
C#CCN1C[C@H](COC)[C@H]2CCC[C@@H](C1=O)N2S(=O)(=O)c1cccc(C(=O)OC)c1 [Compound N10, methyl 3-(((1S,5S,6R)-5-(methoxymethyl)-2-oxo-3-(prop-2-yn-1-yl)-3,10-diazabicyclo[4.3.1]decan-10-yl)sulfonyl)benzoate]	100 to 500	100 to 500
